In patent publication US6500843B2, “Inhibitors of rotamase enzyme activity” (GPI NIL Holdings, Inc., priority 1995, dated 2002):
Where two headings read alike, the source gives them in different places.

How the values were obtained:
[1] = biological target: rotamase activity of FKBP-12 (Homo sapiens, UniProt P62942); assay: Rotamase inhibition (FKBP-12); type: biochemical
[2] = system: chick dorsal root ganglion explant cultures; assay: Neurite outgrowth in chick dorsal root ganglion explant cultures; type: cell-based; conditions: for EC50: Gallus gallus
Description: Explants of chick DRG were cultured as described in FIG. 17 above. […] At 48 hrs., neurite outgrowth was quantitated and the cultures were photographed. Dorsal root ganglion were dissected from chick embryos of ten day gestation. […] Twenty-four hours later, the DRG's were treated with various concentrations of nerve growth factor, immunophilin ligands or combinations of NGF plus drugs. Forty-eight hours after drug treatment, the ganglia were visualized under phase contrast or Hoffman Modulation contrast with a Zeiss Axiovert inverted microscope. Photomicrographs of the explants were made, and neurite outgrowth was quantitated. […] Three to four DRGs are cultured per well, and each treatment was performed in duplicate.

[3] = biological target: recombinant FKBP-12 (Homo sapiens, UniProt P62942); assay: Inhibition of 3H-FK506 binding to recombinant FKBP-12; conditions: read-out: [3H]-FK506-FKBP12 (IC50)
[4] = system: Sprague-Dawley rats, sciatic nerve crush; assay: Sciatic nerve axotomy (crush) model of nerve regeneration; type: in vivo, rat
Description: Six-week old male Sprague-Dawley rats were anesthetized, and the sciatic nerve exposed and crushed, at the level of the hip, by forceps. Test compounds or vehicle were administered subcutaneously just prior to the lesion and daily for the following 18 days. Sections of the sciatic nerve were stained with Holmes silver stain to quantify the number of axons, and Luxol fast blue to quantify the level of myelination. Eighteen days after lesion, there was a significant decrease in the number of axons (50% decrease as compared to non-lesioned control) and degree of myelination (90% decrease as compared to non-lesioned control) in animal treated with vehicle.

[5] = system: dorsal root ganglia; assay: Neurite outgrowth in rat embryonic day 16 dorsal root ganglia explants; type: cell-based; conditions: no added NGF
Description: Stage E16 embryos were removed from pregnant Sprague-Dawley rats and the dorsal root ganglia dissected. Whole ganglia explants were cultured in collagen-coated 35 mm dishes (Falcon) using N2 medium (Dulbecco's Modified Eagle medium and Ham's F12 medium mixed 1:1 and supplemented with progesterone, selenium, insulin, putrescine, glucose, and penicillin-streptomycin) at 37° C. in a 15% CO2 environment. […] Ganglia were observed every 2-3 days under phase-contrasting using an Olympus IMT-2 inverted microscope, and measurements of axon length were made. The axonal field of each ganglion was divided into four quadrants, and the length of the longest axons in each quadrant was measured in microns using an eye-piece micrometer. The average of these measurements was taken as the axon length for the ganglion.

[6] = biological target: FKBP (Rattus norvegicus, UniProt Q62658); assay: [3H]FK506 binding to PC-12 cell homogenates; conditions: untreated PC-12 cell homogenates, 250 pM radioligand
Description: Cultures were scraped from the culture wells and homogenized in 10 volumes of 50 mM Tris-HCl, pH 7.4, 1 mM EDTA, 100 μg/ml phenylmethylsulfonylfluoride and centrifuged at 40,000×g for 20 min at 4° C. Protein was determined by the Coomassie blue dye binding assay using bovine serum albumin as a standard. […] The column was further washed with 0.4 ml of assay buffer, the eluates collected, mixed with Formula 963 (DuPont/NEN) and counted in a Beckman scintillation counter.

[7] = system: PC-12 cells; assay: Neurite outgrowth in PC-12 cells in the presence of NGF; conditions: for Concentration for maximal effects on neurite extension: 4 days; for EC50: Rattus norvegicus
[8] = system: calcineurin; assay: Calcineurin inhibition; type: biochemical; conditions: YES/NO
[9] = Table I, read-out: Rotamase Inhibition Ki
[10] = Neuron, Table I, cultured sensory neurons, read-out: Neutrophic ED50 Chick DRGs
[11] = 30 mg/kg s.c. daily, 18 days after lesion
[12] = s.c. daily for 18 days following the lesion
[13] = 0.1 ng/ml NGF, 48 hr, read-out: EC50 for stimulating nerve outgrowth in the ganglia
[14] = PC-12, 96 h, read-out: Half-maximal stimulation of neurite extension

rotamase activity of FKBP-12, sequence (P62942 whole entry): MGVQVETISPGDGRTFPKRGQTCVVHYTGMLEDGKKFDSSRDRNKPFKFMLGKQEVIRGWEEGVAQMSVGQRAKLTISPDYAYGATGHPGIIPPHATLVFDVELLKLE
recombinant FKBP-12, sequence (P62942 whole entry, species assumed): as the sequence (P62942 whole entry) above
FKBP, sequence (Q62658 whole entry): as the sequence (P62942 whole entry) above, with P10S, M50T, T76I counted along it

Compound	Ki [1, 9]	EC50 [2, 10]	also measured
COc1ccc(CCCCOC(=O)[C@@H]2CCCCN2C(=O)Cc2cc(OC)c(OC)c(OC)c2)cc1 [Example 6]	140 nM	25 nM	–
COc1ccc(CCCCOC(=O)[C@@H]2CCCCN2C(=O)C(=O)c2cc(OC)c(OC)c(OC)c2)cc1 [Example 9]	–	0.03 nM	–
CCC(C)(C)C(=O)C(=O)N1CCCCC1C(=O)OCCCc1cc(OC)c(OC)c(OC)c1 (stereo not shown) [Example 13]	25 nM	–	IC50 ([3]; Table 3): 4000 nM; Axon Number (% Control) [4, 11]: 100 % Control; Myelin Level [4, 11]: 50; Decrease in axon number as compared to non-lesioned control [4, 12]: 5%; Decrease in degree of myelination as compared to control [4, 12]: 50%
CC1(C)COC(=O)CCCCCCCCCOC(=O)[C@@H]2CCCCN2C(=O)C1=O [Example 19]	12 nM	0.017 nM	–
CCOC(=O)C1CCCCN1C(=O)C(C)=O (stereo not shown) [Example 36]	> 10000 nM	–	–
CCOC(=O)C1CCCCN1C(=O)C(=O)C(C)(C)CC (stereo not shown) [Example 41]	1300 nM	–	–
CCOC(=O)C1CCCCN1C(=O)C(=O)c1ccccc1 (stereo not shown) [Example 50]	> 10000 nM	–	–
CCC(C)(C)C(=O)C(=O)N1CCCCC1C(=O)OCC=Cc1ccc(Cl)c(Cl)c1 (stereo not shown) [Example 90]	1800 nM	2500 nM	–
CCC(C)(C)C(=O)C(=O)N1CCCCC1C(=O)OCC=Cc1cc(OC)c(OC)c(OC)c1 (stereo not shown) [Example 91]	28 nM	200 nM	–
CCC(C)(C)C(=O)C(=O)N1CCCCC1C(=O)OCC=Cc1ccccc1 (stereo not shown) [Example 92]	39 nM	90 nM	–
CCC(C)(C)C(=O)C(=O)N1CCCC[C@H]1C(=O)OCCCc1cc(OC)ccc1OC [Example 93]	75 nM	–	–
CCC(C)(C)C(=O)C(=O)N1CCCC[C@H]1C(=O)OCCCc1ccc2c(c1)OCO2 [Example 94]	70 nM	–	–
COc1ccc(CCCCOC(=O)[C@@H]2CCCCN2C(=O)C(=O)c2ccccc2)cc1 [Example 95]	165 nM	–	–
O=C(C(=O)N1CCCC[C@H]1C(=O)OCCCc1ccccc1)c1ccccc1 [Example 96]	740 nM	–	–
CCC(C)(C)C(=O)C(=O)N1CCCC[C@H]1C(=O)OCCCc1cccnc1 [Example 98]	130 nM	75 nM	–
CCC(C)(C)C(=O)C(=O)N1CCCC[C@H]1C(=O)OC(CCCc1ccccc1)CCCc1ccccc1 [Example 99]	–	5 nM	–
CCC(C)(C)C(=O)C(=O)N1CCCC[C@H]1C(=O)OCCCCc1ccc(OC)cc1 [Example 100]	60 nM	–	–
CCC(C)(C)C(=O)C(=O)N1CCCCC1C(=O)OC(CCCc1ccccc1)CCc1ccc(OC)cc1 (stereo not shown) [Example 101]	15 nM	0.17 nM	–
CCC(C)(C)C(=O)C(=O)N1CCCC[C@H]1C(=O)OCCCc1cc(OC)ccc1OC [Example 102]	12 nM	205 nM	Neurite outgrowth in photomicrographs ([2]; 1 pM, 100 pM and 100 nM (FIGS. 19-21)): promoting neurite outgrowth
CCC(C)(C)C(=O)C(=O)N1CCCC[C@H]1C(=O)OCCCc1ccc2c(c1)OCO2 [Example 103]	120 nM	3 nM	–
CCC(C)(C)C(=O)C(=O)N1CCCC[C@H]1C(=O)OC(CCCCc1ccccc1)c1ccccc1 (stereo partly shown) [Example 104]	20 nM	–	–
COc1ccc(CCCCOC(=O)[C@@H]2CCCCN2C(=O)C(=O)C2CCCCC2)cc1 [Example 105]	103 nM	–	–
O=C(C(=O)N1CCCC[C@H]1C(=O)OCCCC1CCCCC1)C1CCCCC1 [Example 106]	760 nM	1 nM	–
O=C(C(=O)N1CCCC[C@H]1C(=O)OCCCc1ccccc1)C1CCCCC1 [Example 107]	210 nM	0.82 nM	–
C=CC[C@@H]1/C=C(\C)C[C@H](C)C[C@H](OC)[C@H]2O[C@@](O)(C(=O)C(=O)N3CCCC[C@H]3C(=O)O[C@H](/C(C)=C/[C@@H]3CC[C@@H](O)[C@H](OC)C3)[C@H](C)[C@@H](O)CC1=O)[C@H](C)C[C@@H]2OC [FK506]	–	–	EC50 [2, 13]: 1 to 2 nM; Concentration producing a noticeable increase in growth [5]: 1 nM; Concentration producing detectable augmentation of neurite outgrowth [5]: 1 pM; Concentration required for maximal outgrowth [5]: 1 pM; IC50 [6]: 1 to 2 nM; Maximal enhancement of neurite outgrowth ([7]; 0.5 ng/ml NGF, 100 nM drug, 96 hours): 2.5 fold; Concentration for maximal effects on neurite extension ([7]; 0.5 ng/ml NGF): 5 to 100 nM; Concentration eliciting the same maximal outgrowth observed with 50 ng/ml NGF ([7]; 1 ng/ml NGF, 48 hr): 1 nM; Reduction of the NGF concentration needed to elicit maximal outgrowth ([7]; FK506 100 nM, 48 hr): 20-50 fold; EC50 ([7]; PC-12, 48 h, read-out: Half maximal effects on neurite outgrowth): ~0.1 nM; EC50 [7, 14]: 0.5 nM; EC50 ([7]; PC-12, read-out: Neurite Outgrowth (ED50)): 0.5 nM
CO[C@H]1C[C@@H]2CC[C@@H](C)[C@@](O)(O2)C(=O)C(=O)N2CCCC[C@H]2C(=O)O[C@H]([C@H](C)C[C@@H]2CC[C@@H](O)[C@H](OC)C2)CC(=O)[C@H](C)/C=C(\C)[C@@H](O)[C@@H](OC)C(=O)[C@H](C)C[C@H](C)/C=C/C=C/C=C/1C [Rapamycin]	–	–	EC50 [2, 13]: 1 nM; Concentration for maximal effects on neurite extension ([7]; 0.5 ng/ml NGF): 10 to 100 nM; Stimulation of neurite outgrowth ([7]; 0.1-0.5 ng/ml NGF, 100 nM drug, 96 hours): 3-4 fold; EC50 [7, 14]: 0.2 to 0.4 nM
COC1CC2CCC(C)C(O)(O2)C(=O)C(=O)N2CCCCC2C(=O)OC(C(C)CC2CCC(O)C(OC)C2)CC(=O)C(C)C=C(C)C(O)C(OC)C(=O)C(C)CC(C)C2C=CC(C=C1C)n1c(=O)n(-c3ccccc3)c(=O)n12 (stereo not shown) [WAY-124466]	–	–	IC50 ([3]; Table 2): 10 nM; Calcineurin Inhibition [8]: fails to inhibit calcineurin; Ki ([1]; Table 2, read-out: Rotamase (Ki)): 12 nM; Potentiation of NGF-dependent neurite production in sensory ganglia ([2]; 100 nM, plus or minus 0.1 ng/ml NGF, 48 hrs (FIG. 18)): potentiate NGF-dependent neurite production; Concentration for maximal effects on neurite extension ([7]; 0.5 ng/ml NGF): 100-1,000 nM; EC50 [7, 14]: ~10 nM; Potentiation of neurite extension elicited by NGF ([7]; picomolar concentrations, 0.5 ng/ml NGF, 4 days (FIG. 15)): potentiate neurite extension
NGF: nerve growth factor	–	–	NGF concentration for maximal augmentation of neurite outgrowth ([7]; 48 hr): 50 to 100 ng/mL; NGF concentration for half maximal outgrowth in the presence of FK506 ([7]; FK506 100 nM, 48 hr): 0.1 ng/mL; Neurite extension as % of maximal effects evident at 50 ng/ml NGF ([7]; NGF alone at 0.1 ng/ml): about 15%
